For 13 molecules, DC50 results are on record in patent US20250051338A1, “TYK2 DEGRADERS AND USES THEREOF” (Kymera Therapeutics, Inc., priority 2021, published 2025).

SMILES strings stand for the structures. A value given as a limit tells only on which side of the number the result lay.

The first assay deals with T1, TYK2 (Homo sapiens, UniProt P29597). The assay can be described thus: TYK2 degradation MSD assay in human PBMC cells. More on the design: endogenous in cells; host or cells: human PBMC. Format: cell-based. The conditions noted are these: 4 to 24 hours incubation, read-out: TYK2 MSD DC50 rating in human PBMC. As for the experimental part: (§1) Example 3. TYK2 Degradation MSD Assay in EBV-B, OCI-LY10, and Human PBMC Cells
T1 sequence (P29597 whole entry): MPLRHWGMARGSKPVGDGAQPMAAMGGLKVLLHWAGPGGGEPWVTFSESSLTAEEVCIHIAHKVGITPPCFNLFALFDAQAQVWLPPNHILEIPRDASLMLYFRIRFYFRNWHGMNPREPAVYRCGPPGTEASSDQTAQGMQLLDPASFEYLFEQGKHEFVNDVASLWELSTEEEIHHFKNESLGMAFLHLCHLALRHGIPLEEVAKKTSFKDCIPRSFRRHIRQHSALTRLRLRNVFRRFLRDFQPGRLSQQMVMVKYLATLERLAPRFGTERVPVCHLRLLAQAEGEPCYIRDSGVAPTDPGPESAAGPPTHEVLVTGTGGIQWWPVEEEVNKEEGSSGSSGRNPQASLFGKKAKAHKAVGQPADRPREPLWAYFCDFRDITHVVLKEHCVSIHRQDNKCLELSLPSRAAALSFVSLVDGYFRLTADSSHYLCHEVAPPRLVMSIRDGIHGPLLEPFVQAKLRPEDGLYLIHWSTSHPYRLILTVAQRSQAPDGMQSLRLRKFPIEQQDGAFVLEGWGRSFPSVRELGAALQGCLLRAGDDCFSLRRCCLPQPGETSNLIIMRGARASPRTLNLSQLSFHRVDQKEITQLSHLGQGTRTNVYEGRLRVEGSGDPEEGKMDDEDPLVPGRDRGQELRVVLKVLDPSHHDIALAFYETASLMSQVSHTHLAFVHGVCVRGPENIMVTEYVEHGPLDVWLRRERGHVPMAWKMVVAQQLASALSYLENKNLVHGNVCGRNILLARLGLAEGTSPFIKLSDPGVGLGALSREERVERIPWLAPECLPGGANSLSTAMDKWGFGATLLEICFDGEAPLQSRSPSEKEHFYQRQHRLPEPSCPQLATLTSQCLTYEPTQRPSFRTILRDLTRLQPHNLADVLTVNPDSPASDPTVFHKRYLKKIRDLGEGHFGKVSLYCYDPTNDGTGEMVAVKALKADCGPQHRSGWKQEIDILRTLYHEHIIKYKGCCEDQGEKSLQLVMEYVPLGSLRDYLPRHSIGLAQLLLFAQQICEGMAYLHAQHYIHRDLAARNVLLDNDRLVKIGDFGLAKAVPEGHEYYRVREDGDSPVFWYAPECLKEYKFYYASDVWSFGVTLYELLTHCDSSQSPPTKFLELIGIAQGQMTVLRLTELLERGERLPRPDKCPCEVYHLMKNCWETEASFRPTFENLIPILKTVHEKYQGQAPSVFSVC
(§2) Degradation of TYK2 in cells was quantitatively measured using Meso Scale Discovery (MSD) technology. EBV-B, OCI-LY10 or human PBMC cells were seeded in 96-well plates with a density of 0.4 million cells per well in 100 μl fresh media. Compounds were then added to the assay plates with a final top concentration of 1 to 10 μM in a 1:3 dilution series with total of 9 doses. The assay plates were then incubated for 4 to 24 hours at 37° C. under 5% CO2. The assay plates were then centrifuged for 5 minutes, and the cell pellets were treated with 100 μl/well RIPA lysis buffer (Boston Bioproducts, BP-115D) with protease and phosphatase inhibitors (Roche, 05892791001 and 04906837001). To prepare MSD assay plates (MSD, L15XA), the plates were coated with the capture antibody (Santa Cruz Biotechnology, SC-5271) in PBS, at 40 μl/well. The plates were then incubated overnight at 4° C., washed 3 times with 150 μl/well TBST buffer (Cell Signaling Technology, 9997S) and blocked with 150 μl/well blocking buffer (MSD, R93BA-4). Cell lysates were then added to MSD assay plates and the plates were incubated at room temperature for 1 hour. The plates were then washed 3 times with 150 μl/well TBST buffer and 25 μl/well primary detection antibody (Cell Signaling Technology, #9312). The assay plates were then incubated at room temperature for 1 hour, washed 3 times with 150 μl/well TBST buffer, and 25 μl/well secondary detection antibody, SULFO-TAG anti-rabbit antibody (MSD, R32AB-1) were added. The assay plates were then incubated at room temperature for 1 hour, washed 3 times with 150 μl/well TBST buffer, and 150 μl/well MSD reading buffer (MSD, R92TC-2) were added. The plates were then analyzed by an MSD reader. The data was analyzed by GraphPad Prism and the dose dependent TYK2 degradation was fit using the four-parameter inhibitor vs. response nonlinear regression. The DC50 data were measured and categorized into different levels in Table H. The compound with DC50 less than or equal to 1 nM is marked as A, with DC50 more than 1 nM and less than or equal to 10 nM is marked as B, with DC50 more than 10 nM and less than or equal to 100 nM is marked as C, and with DC50 more than 100 nM or not available is marked as D.
As a reminder, the DC50 is the concentration giving 50% degradation. `CNC(=O)c1cnc(Nc2ccc(CN(C)CC3CCN(Cc4cccc5c4n(C)c(=O)n5C4CCC(=O)NC4=O)CC3)cn2)cc1Nc1cccc(-c2ncc(F)cn2)c1OC` (stereo not drawn) [Example K134]: the DC50 was less than 1 nM.
For the molecule `CNC(=O)c1cnc(Nc2ccc(CN(C)CC3CCN(c4ccc5c(c4)n(C)c(=O)n5C4CCC(=O)NC4=O)CC3)cn2)cc1Nc1cccc(-c2ncc(F)cn2)c1OC` (stereo not drawn) [Example K135], the DC50 is less than 1 nM.
On the same count and under the same terms, next, `CNC(=O)c1cnc(Nc2ccc(CN3CCC(CC#Cc4cccc5c4n(C)c(=O)n5C4CCC(=O)NC4=O)CC3)cn2)cc1Nc1cccc(-c2ncc(F)cn2)c1OC` (stereo not drawn) [Example K136]: 1 to 10 nM; `CNC(=O)c1cnc(Nc2ccc(CN(C)C3CCN(Cc4cccc5c4n(C)c(=O)n5C4CCC(=O)NC4=O)CC3)cn2)cc1Nc1cccc(-c2ncc(F)cn2)c1OC` (stereo not drawn) [Example K137]: less than 1 nM; `CNC(=O)c1cnc(Nc2ccc(CN3CCN(CCc4ccc5c(c4)n(C)c(=O)n5C4CCC(=O)NC4=O)CC3)cn2)cc1Nc1cccc(-c2ncc(F)cn2)c1OC` (stereo not drawn) [Example K138]: less than 1 nM.
Still for that read-out and setting: next, `CNC(=O)c1cnc(Nc2ccc(CN3CCN(CC4CCN(c5ccc(-c6ccc7c(c6)n(C)c(=O)n7C6CCC(=O)NC6=O)cc5)CC4)CC3)cn2)cc1Nc1cccc(-c2ncc(F)cn2)c1OC` (stereo not drawn) [Example K139]: less than 1 nM; `CNC(=O)c1cnc(Nc2ccc(CN3CCC(N4CC(c5ccc6c(c5)n(C)c(=O)n6C5CCC(=O)NC5=O)C4)CC3)cn2)cc1Nc1cccc(-c2ncc(F)cn2)c1OC` (stereo not drawn) [Example K140]: 1 to 10 nM; `CNC(=O)c1cnc(Nc2ccc(CN3CCC(OC4CC(c5cccc6c5n(C)c(=O)n6C5CCC(=O)NC5=O)C4)CC3)cn2)cc1Nc1cccc(-c2ncc(F)cn2)c1OC` (stereo not drawn) [Example K141]: less than 1 nM.
Same read-out and setting: with `CNC(=O)c1cnc(Nc2ccc(CN3CC(C)(Cc4ccc5c(c4)n(C)c(=O)n5C4CCC(=O)NC4=O)C3)cn2)cc1Nc1cccc(-c2ncc(F)cn2)c1OC` (stereo not drawn) [Example K142] the figure was 1 to 10 nM; with `CNC(=O)c1cnc(Nc2ccc(CN3CCN(C(=O)CCc4ccc5c(c4)n(C)c(=O)n5C4CCC(=O)NC4=O)CC3)cn2)cc1Nc1cccc(-c2ncc(F)cn2)c1OC` (stereo not drawn) [Example K143], less than 1 nM; with `CNC(=O)c1cnc(Nc2ccc(CN3CCC4(CC3)CC(Cc3ccc5c(c3)n(C)c(=O)n5C3CCC(=O)NC3=O)C4)cn2)cc1Nc1cccc(-c2ncc(F)cn2)c1OC` (stereo not drawn) [Example K144], less than 1 nM.
Consider `CNC(=O)c1cnc(Nc2ccc(CN3CCCC4(C3)CN(c3ncc(C#Cc5ccc6c(c5)n(C)c(=O)n6C5CCC(=O)NC5=O)cn3)C4)cn2)cc1Nc1cccc(-c2ncc(F)cn2)c1OC` (stereo not drawn) [Example K145], for which the 50% degradation concentration (DC50) was 1 to 10 nM.
On the same count and under the same terms, with `CNC(=O)c1cnc(Nc2ccc(CN3CCC(CN4CCC(c5ccc6c(c5)n(C)c(=O)n6C5CCC(=O)NC5=O)CC4)CC3)cn2)cc1Nc1cccc(-c2ncc(F)cn2)c1OC` (stereo not drawn) [Example K146] the figure was less than 1 nM.

In a further assay the target is T1, TYK2. Put plainly: TYK2 degradation MSD assay in EBV-B cells. Format: cell-based. More on the design: endogenous in cells; host or cells: EBV-B cells. The conditions noted are these: 4 to 24 hours incubation, read-out: TYK2 MSD DC50 rating in EBV-B. As for the experimental part: as §1, §2
In the case of `CNC(=O)c1cnc(Nc2ccc(CN(C)CC3CCN(Cc4cccc5c4n(C)c(=O)n5C4CCC(=O)NC4=O)CC3)cn2)cc1Nc1cccc(-c2ncc(F)cn2)c1OC` (stereo not drawn) [Example K134], the DC50 is less than 1 nM.
On the same count and under the same terms, with `CNC(=O)c1cnc(Nc2ccc(CN(C)CC3CCN(c4ccc5c(c4)n(C)c(=O)n5C4CCC(=O)NC4=O)CC3)cn2)cc1Nc1cccc(-c2ncc(F)cn2)c1OC` (stereo not drawn) [Example K135] the figure was less than 1 nM; with `CNC(=O)c1cnc(Nc2ccc(CN3CCC(CC#Cc4cccc5c4n(C)c(=O)n5C4CCC(=O)NC4=O)CC3)cn2)cc1Nc1cccc(-c2ncc(F)cn2)c1OC` (stereo not drawn) [Example K136], less than 1 nM.
On to `CNC(=O)c1cnc(Nc2ccc(CN(C)C3CCN(Cc4cccc5c4n(C)c(=O)n5C4CCC(=O)NC4=O)CC3)cn2)cc1Nc1cccc(-c2ncc(F)cn2)c1OC` (stereo not drawn) [Example K137], for which the DC50 was less than 1 nM.
For the molecule `CNC(=O)c1cnc(Nc2ccc(CN3CCN(CCc4ccc5c(c4)n(C)c(=O)n5C4CCC(=O)NC4=O)CC3)cn2)cc1Nc1cccc(-c2ncc(F)cn2)c1OC` (stereo not drawn) [Example K138], the DC50 was less than 1 nM.
Turning to `CNC(=O)c1cnc(Nc2ccc(CN3CCN(CC4CCN(c5ccc(-c6ccc7c(c6)n(C)c(=O)n7C6CCC(=O)NC6=O)cc5)CC4)CC3)cn2)cc1Nc1cccc(-c2ncc(F)cn2)c1OC` (stereo not drawn) [Example K139], the DC50 was less than 1 nM.
In the case of `CNC(=O)c1cnc(Nc2ccc(CN3CCC(N4CC(c5ccc6c(c5)n(C)c(=O)n6C5CCC(=O)NC5=O)C4)CC3)cn2)cc1Nc1cccc(-c2ncc(F)cn2)c1OC` (stereo not drawn) [Example K140], the 50% degradation concentration (DC50) is less than 1 nM.
Still for that read-out and setting: with `CNC(=O)c1cnc(Nc2ccc(CN3CCC(OC4CC(c5cccc6c5n(C)c(=O)n6C5CCC(=O)NC5=O)C4)CC3)cn2)cc1Nc1cccc(-c2ncc(F)cn2)c1OC` (stereo not drawn) [Example K141] the figure was greater than 100 nM; with `CNC(=O)c1cnc(Nc2ccc(CN3CC(C)(Cc4ccc5c(c4)n(C)c(=O)n5C4CCC(=O)NC4=O)C3)cn2)cc1Nc1cccc(-c2ncc(F)cn2)c1OC` (stereo not drawn) [Example K142], less than 1 nM.
For the molecule `CNC(=O)c1cnc(Nc2ccc(CN3CCN(C(=O)CCc4ccc5c(c4)n(C)c(=O)n5C4CCC(=O)NC4=O)CC3)cn2)cc1Nc1cccc(-c2ncc(F)cn2)c1OC` (stereo not drawn) [Example K143], the DC50 is greater than 100 nM.
The same measure, in the same setting: with `CNC(=O)c1cnc(Nc2ccc(CN3CCC4(CC3)CC(Cc3ccc5c(c3)n(C)c(=O)n5C3CCC(=O)NC3=O)C4)cn2)cc1Nc1cccc(-c2ncc(F)cn2)c1OC` (stereo not drawn) [Example K144] the figure was less than 1 nM.
`CNC(=O)c1cnc(Nc2ccc(CN3CCCC4(C3)CN(c3ncc(C#Cc5ccc6c(c5)n(C)c(=O)n6C5CCC(=O)NC5=O)cn3)C4)cn2)cc1Nc1cccc(-c2ncc(F)cn2)c1OC` (stereo not drawn) [Example K145]: the DC50 was 1 to 10 nM.
As to `CNC(=O)c1cnc(Nc2ccc(CN3CCC(CN4CCC(c5ccc6c(c5)n(C)c(=O)n6C5CCC(=O)NC5=O)CC4)CC3)cn2)cc1Nc1cccc(-c2ncc(F)cn2)c1OC` (stereo not drawn) [Example K146], the DC50 is less than 1 nM.

In another assay the target is T1, TYK2. Put plainly: TYK2 degradation MSD assay in OCI-LY10 cells. The format is cell-based. More on the design: endogenous in cells; host or cells: EBV-B cells. The following applies: 4 to 24 hours incubation, read-out: TYK2 MSD DC50 rating in OCI-LY10. As to the method:
as §1, §2
`CNC(=O)c1cnc(Nc2ccc(CN(C)CC3CCN(Cc4cccc5c4n(C)c(=O)n5C4CCC(=O)NC4=O)CC3)cn2)cc1Nc1cccc(-c2ncc(F)cn2)c1OC` (stereo not drawn) [Example K134]: the half-maximal degradation concentration (DC50) was greater than 100 nM.
In the case of `CNC(=O)c1cnc(Nc2ccc(CN(C)CC3CCN(c4ccc5c(c4)n(C)c(=O)n5C4CCC(=O)NC4=O)CC3)cn2)cc1Nc1cccc(-c2ncc(F)cn2)c1OC` (stereo not drawn) [Example K135], the DC50 was greater than 100 nM.
Same read-out and setting: with `CNC(=O)c1cnc(Nc2ccc(CN3CCC(CC#Cc4cccc5c4n(C)c(=O)n5C4CCC(=O)NC4=O)CC3)cn2)cc1Nc1cccc(-c2ncc(F)cn2)c1OC` (stereo not drawn) [Example K136] the figure was greater than 100 nM.
On the same count and under the same terms, next, `CNC(=O)c1cnc(Nc2ccc(CN(C)C3CCN(Cc4cccc5c4n(C)c(=O)n5C4CCC(=O)NC4=O)CC3)cn2)cc1Nc1cccc(-c2ncc(F)cn2)c1OC` (stereo not drawn) [Example K137]: greater than 100 nM; `CNC(=O)c1cnc(Nc2ccc(CN3CCN(CCc4ccc5c(c4)n(C)c(=O)n5C4CCC(=O)NC4=O)CC3)cn2)cc1Nc1cccc(-c2ncc(F)cn2)c1OC` (stereo not drawn) [Example K138]: greater than 100 nM; `CNC(=O)c1cnc(Nc2ccc(CN3CCN(CC4CCN(c5ccc(-c6ccc7c(c6)n(C)c(=O)n7C6CCC(=O)NC6=O)cc5)CC4)CC3)cn2)cc1Nc1cccc(-c2ncc(F)cn2)c1OC` (stereo not drawn) [Example K139]: greater than 100 nM.
On the same count and under the same terms, next, `CNC(=O)c1cnc(Nc2ccc(CN3CCC(N4CC(c5ccc6c(c5)n(C)c(=O)n6C5CCC(=O)NC5=O)C4)CC3)cn2)cc1Nc1cccc(-c2ncc(F)cn2)c1OC` (stereo not drawn) [Example K140]: greater than 100 nM; `CNC(=O)c1cnc(Nc2ccc(CN3CCC(OC4CC(c5cccc6c5n(C)c(=O)n6C5CCC(=O)NC5=O)C4)CC3)cn2)cc1Nc1cccc(-c2ncc(F)cn2)c1OC` (stereo not drawn) [Example K141]: less than 1 nM; `CNC(=O)c1cnc(Nc2ccc(CN3CC(C)(Cc4ccc5c(c4)n(C)c(=O)n5C4CCC(=O)NC4=O)C3)cn2)cc1Nc1cccc(-c2ncc(F)cn2)c1OC` (stereo not drawn) [Example K142]: greater than 100 nM.
Turning to `CNC(=O)c1cnc(Nc2ccc(CN3CCN(C(=O)CCc4ccc5c(c4)n(C)c(=O)n5C4CCC(=O)NC4=O)CC3)cn2)cc1Nc1cccc(-c2ncc(F)cn2)c1OC` (stereo not drawn) [Example K143], the 50% degradation concentration (DC50) was greater than 100 nM.
On the same count and under the same terms, with `CNC(=O)c1cnc(Nc2ccc(CN3CCC4(CC3)CC(Cc3ccc5c(c3)n(C)c(=O)n5C3CCC(=O)NC3=O)C4)cn2)cc1Nc1cccc(-c2ncc(F)cn2)c1OC` (stereo not drawn) [Example K144] the figure was greater than 100 nM.
Turning to `CNC(=O)c1cnc(Nc2ccc(CN3CCCC4(C3)CN(c3ncc(C#Cc5ccc6c(c5)n(C)c(=O)n6C5CCC(=O)NC5=O)cn3)C4)cn2)cc1Nc1cccc(-c2ncc(F)cn2)c1OC` (stereo not drawn) [Example K145], the DC50 was greater than 100 nM.
Same read-out and setting: next, `CNC(=O)c1cnc(Nc2ccc(CN3CCC(CN4CCC(c5ccc6c(c5)n(C)c(=O)n6C5CCC(=O)NC5=O)CC4)CC3)cn2)cc1Nc1cccc(-c2ncc(F)cn2)c1OC` (stereo not drawn) [Example K146]: greater than 100 nM.
